Experimental data published in ChEMBL document CHEMBL4483862, “Open-source discovery of chemical leads for next-generation chemoprotective antimalarials” (2018).

Test system: Plasmodium berghei
Assay: Luciferase/luciferin-expressing antifolate-resistant parasites were used to infect a culture of HepG2 cells that were pre-incubated with compounds. Infected hepatocytes emit light due to the luciferase reaction. Assay results are presented as the percent inhibition of light emission compared to control. […]
Assay type: functional
Settings: sporozoite; for IC90: read-out: LUCIFERASE INFECTION ASSAY - IC90
[1] = read-out: LUCIFERASE INFECTION ASSAY - IC50

COc1cc(OC)c2c(-c3ccccc3)cc(SCC(=O)N(C)C3CCS(=O)(=O)C3)nc2c1 (stereo not given)
IC50 [1]: > 10 µM
IC90: > 10 µM

O=S(=O)(Nc1cc(F)c(Br)cc1F)c1cc(C(F)(F)F)cc(C(F)(F)F)c1
IC50 (HEPG2TOX_HILL_SLOPE 2.19, HEPG2TOX_R_SQUARED 0.933, PBLUC_HILL_SLOPE 2.47, PBLUC_R_SQUARED 0.245, read-out: LUCIFERASE INFECTION ASSAY - IC50): 2.98 µM
IC90: > 6.82 µM

Cc1ccc(CN2CCC3(CC2)C(=O)N(C(C)C)C(=O)N3CCc2ccccc2)o1
IC50 (HEPG2TOX_HILL_SLOPE 8.85, HEPG2TOX_R_SQUARED 0.516, read-out: LUCIFERASE INFECTION ASSAY - IC50): > 8.06 µM
IC90: > 8.06 µM

COc1cc(C(=O)OC(C)c2ccc(F)cc2)cc(OC)c1OC (stereo not given)
IC50 (PBLUC_HILL_SLOPE 3.41, PBLUC_R_SQUARED 0.0259, read-out: LUCIFERASE INFECTION ASSAY - IC50): 9.26 µM
IC90: > 10 µM

O=C(CCOc1ccc(F)cc1)Nc1cc(Cl)cc(Cl)c1
IC50 (PBLUC_HILL_SLOPE 0.967, PBLUC_R_SQUARED 0.399, read-out: LUCIFERASE INFECTION ASSAY - IC50): > 10.1 µM
IC90: > 10.1 µM

CCOc1ccc(C(C)=O)cc1CSc1nc2ccccc2n1-c1cccc(C)c1
IC50 (PBLUC_HILL_SLOPE 3.51, PBLUC_R_SQUARED 0.141, read-out: LUCIFERASE INFECTION ASSAY - IC50): 7.59 µM
IC90: > 10 µM

C=CCNC(=S)N/N=C/C1=C(N2CCOCC2)C(=C/c2ccc(Cl)cc2Cl)/CC1
IC50 [1]: > 10 µM
IC90: > 10 µM

Cn1nc(-c2ccc(S(=O)(=O)Oc3cccc([N+](=O)[O-])c3)s2)cc1C(F)(F)F
IC50 [1]: > 7.61 µM
IC90: > 7.61 µM

CC(=O)c1c(C)[nH]c(C(=O)OC(c2ccccc2)c2ccc(Cl)cc2)c1C (stereo not given)
IC50 [1]: > 10 µM
IC90: > 10 µM

COc1ccc(-c2cc(=O)n3nc(C)c(-c4ccc(F)cc4)c3[nH]2)cc1
IC50 (HEPG2TOX_HILL_SLOPE 2.56, HEPG2TOX_R_SQUARED 0.662, PBLUC_HILL_SLOPE 58.3, PBLUC_R_SQUARED 0.0989, read-out: LUCIFERASE INFECTION ASSAY - IC50): 3.12 µM
IC90: 3.24 µM

Cc1c(-c2ccccc2)oc2c(C(=O)Nc3ccc(N4CCOCC4)c4ccncc34)cccc2c1=O
IC50 (PBLUC_HILL_SLOPE 15.7, PBLUC_R_SQUARED 0.205, read-out: LUCIFERASE INFECTION ASSAY - IC50): 9.81 µM
IC90: > 10 µM

Cc1nc(-c2ccc(F)cc2)sc1C(=O)N1CCc2sccc2C1
IC50 [1]: > 10 µM
IC90: > 10 µM

COc1ccc(NC(=O)Nc2ccc3nc(-c4ccccc4)nn3c2)cc1OC
IC50 [1]: > 10 µM
IC90: > 10 µM

CCN(c1ccccc1)S(=O)(=O)c1cc(NC(=O)CNCc2ccco2)ccc1Cl
IC50 [1]: > 10 µM
IC90: > 10 µM

COc1ccc(-c2cnc3ccc(-c4cccc(C(F)(F)F)c4)nn23)cc1OC
IC50 (PBLUC_HILL_SLOPE 15.4, PBLUC_R_SQUARED 0.158, read-out: LUCIFERASE INFECTION ASSAY - IC50): 8.61 µM
IC90: 9.93 µM

CCc1ccc(OCC(O)Cn2c(=O)c3ccccc3n3nc(C)cc23)cc1 (stereo not given)
IC50 (HEPG2TOX_HILL_SLOPE 9.12, HEPG2TOX_R_SQUARED 0.677, PBLUC_HILL_SLOPE 3.87, PBLUC_R_SQUARED 0.197, read-out: LUCIFERASE INFECTION ASSAY - IC50): 5.34 µM
IC90: 9.43 µM

O=C1CCCN1CCCNc1cc(-c2ccccc2)c2ccccc2n1
IC50 (HEPG2TOX_HILL_SLOPE 0.987, HEPG2TOX_R_SQUARED 0.959, PBLUC_HILL_SLOPE 13.1, PBLUC_R_SQUARED 0.545, read-out: LUCIFERASE INFECTION ASSAY - IC50): 3.77 µM
IC90: 4.46 µM

Cc1ccc(OCc2csc(-c3cnn(C)c3)n2)c2c1C(C)CC2=O (stereo not given)
IC50 (PBLUC_HILL_SLOPE 1.52, PBLUC_R_SQUARED 0.607, read-out: LUCIFERASE INFECTION ASSAY - IC50): 3.47 µM
IC90: > 10 µM

CCOC(=O)c1c(C)[nH]c(/C=C2/C(=O)N(c3ccccc3)N=C2C)c1Cc1cccc(Cl)c1
IC50 [1]: > 10 µM
IC90: > 10 µM

CCCCCCCCC/C(=N\O)c1ccccn1
IC50 (HEPG2TOX_HILL_SLOPE 8.74, HEPG2TOX_R_SQUARED 0.63, PBLUC_HILL_SLOPE 40.5, PBLUC_R_SQUARED 0.34, read-out: LUCIFERASE INFECTION ASSAY - IC50): 11.3 µM
IC90: 11.9 µM

O=C(CSc1nnc(Nc2ccccc2)s1)Nc1ccccc1N1CCCC1
IC50 [1]: > 10 µM
IC90: > 10 µM

Fc1ccccc1-c1cnn2c(NCc3cccs3)ccnc12
IC50 (FFLUC_HILL_SLOPE 1.17, FFLUC_R_SQUARED 0.682, PBLUC_HILL_SLOPE 0.51, PBLUC_R_SQUARED 0.639, read-out: LUCIFERASE INFECTION ASSAY - IC50): 0.238 µM
IC90: > 10.2 µM

Cc1nccn1Cc1cccc(CNC(=O)/C=C/c2cccc(Cl)c2Cl)c1
IC50 [1]: > 10 µM
IC90: > 10 µM

Oc1c(Br)cc(Cl)cc1/C=C/c1ccc2cccc(O)c2n1
IC50 (PBLUC_HILL_SLOPE 4.36, PBLUC_R_SQUARED 0.823, read-out: LUCIFERASE INFECTION ASSAY - IC50): 5.59 µM
IC90: > 8.76 µM

Cc1cccc(C)c1N(C(=O)CC(c1ccccc1)c1ccccc1)c1nc2ccccc2s1
IC50 (FFLUC_HILL_SLOPE 6.55, FFLUC_R_SQUARED 0.86, PBLUC_HILL_SLOPE 3.66, PBLUC_R_SQUARED 0.235, read-out: LUCIFERASE INFECTION ASSAY - IC50): 7.33 µM
IC90: > 10 µM

C(=C\c1nc2ccccc2s1)/c1ccc(CN2CCCCC2)cc1
IC50 (PBLUC_HILL_SLOPE 1.51, PBLUC_R_SQUARED 0.817, read-out: LUCIFERASE INFECTION ASSAY - IC50): 0.679 µM
IC90: 2.91 µM

COc1ccc(NC(=O)NCC(=O)c2cc(C)n(-c3ccc(C)c(C)c3)c2C)cc1
IC50 (HEPG2TOX_HILL_SLOPE 6.34, HEPG2TOX_R_SQUARED 0.826, PBLUC_HILL_SLOPE 22.8, PBLUC_R_SQUARED 0.569, read-out: LUCIFERASE INFECTION ASSAY - IC50): 3.63 µM
IC90: 3.99 µM

CCCc1cc(NCc2ccccn2)n2nc(C)c(-c3ccccc3)c2n1
IC50 (PBLUC_HILL_SLOPE 8.47, PBLUC_R_SQUARED 0.549, read-out: LUCIFERASE INFECTION ASSAY - IC50): 3.45 µM
IC90: 4.47 µM

COc1ccc(OC)c(/C=C/C(=O)Nc2cc(C(F)(F)F)ccc2Oc2ccc(Br)cc2)c1
IC50 (FFLUC_HILL_SLOPE 11.8, FFLUC_R_SQUARED 0.49, HEPG2TOX_HILL_SLOPE 2.88, HEPG2TOX_R_SQUARED 0.666, read-out: LUCIFERASE INFECTION ASSAY - IC50): > 10 µM
IC90: > 10 µM

COc1ccc(C(NCc2cccc3ccccc23)C2CC2)cc1 (stereo not given)
IC50 [1]: > 10 µM
IC90: > 10 µM

C=C(C)c1cccc(C(C)(C)NC(=O)NNc2ccnc3cc(Cl)ccc23)c1
IC50 (PBLUC_HILL_SLOPE 2.57, PBLUC_R_SQUARED 0.548, read-out: LUCIFERASE INFECTION ASSAY - IC50): 3.86 µM
IC90: 9.06 µM

Cc1c(C(=O)OC(C)C(=O)N2CCN(Cc3ccccc3)CC2)sc2nc3n(c(=O)c12)CCC3 (stereo not given)
IC50 (PBLUC_HILL_SLOPE 12.6, PBLUC_R_SQUARED 0.201, read-out: LUCIFERASE INFECTION ASSAY - IC50): 9 µM
IC90: > 10 µM

CCCCCCN(C(=O)CC(NC(=O)c1ccccc1)c1ccccc1)c1nc2ccccc2s1 (stereo not given)
IC50 (FFLUC_HILL_SLOPE 11.5, FFLUC_R_SQUARED 0.371, PBLUC_HILL_SLOPE 30.2, PBLUC_R_SQUARED 0.437, read-out: LUCIFERASE INFECTION ASSAY - IC50): 8.6 µM
IC90: 9.24 µM

O=C(Nc1cc(Cl)cc(Cl)c1)N1CCC(n2cccc2)CC1
IC50 [1]: > 9.76 µM
IC90: > 9.76 µM

O=C1CC(c2cccc3ccccc23)c2c([nH]c(-c3ccccc3)nc2=O)N1 (stereo not given)
IC50 [1]: > 8.98 µM
IC90: > 8.98 µM

CC(C)(C)c1ccc(/C=C2\CCCc3c2nc2ccccc2c3C(=O)OCC(=O)N2CCOCC2)cc1
IC50 [1]: 8.09 µM
IC90: > 10 µM

CCCCCCCCc1nnc(NC(=O)c2cnc(C)cn2)s1
IC50 (PBLUC_HILL_SLOPE 3.30, 10.9, PBLUC_R_SQUARED 0.837, 0.639, read-out: LUCIFERASE INFECTION ASSAY - IC50): 6.57 µM
IC90: 9.2 µM

Cc1nn(CC(=O)NC(C)c2cc3ccccc3o2)c(C)c1S(=O)(=O)N1CCc2ccccc21 (stereo not given)
IC50 [1]: > 10 µM
IC90: > 10 µM

CC(=O)NCCCc1ccc(C(=O)Cn2cc(C(F)(F)F)ccc2=O)cc1
IC50 [1]: > 10 µM
IC90: > 10 µM

COc1ccc(-c2cc3c(cn2)nc(NCCc2cc(OC)ccc2OC)n3C)c(C)c1
IC50 (HEPG2TOX_HILL_SLOPE 1.97, HEPG2TOX_R_SQUARED 0.898, PBLUC_HILL_SLOPE 1.3, PBLUC_R_SQUARED 0.74, read-out: LUCIFERASE INFECTION ASSAY - IC50): 0.669 µM
IC90: 3.63 µM

Cn1ccc2cc(-c3cn4c(-c5ccccc5)cnc4cn3)ccc21
IC50 (HEPG2TOX_HILL_SLOPE 1.3, HEPG2TOX_R_SQUARED 0.937, PBLUC_HILL_SLOPE 1.56, PBLUC_R_SQUARED 0.678, read-out: LUCIFERASE INFECTION ASSAY - IC50): 0.679 µM
IC90: 2.78 µM

CS(=O)(=O)c1ccc(C(F)(F)F)cc1[N+](=O)[O-]
IC50 [1]: > 12.3 µM
IC90: > 12.3 µM

CCCNC(=O)c1c(NC(=O)c2cccc(F)c2)nc2ccc(C)cn12
IC50 (PBLUC_HILL_SLOPE 9.17, PBLUC_R_SQUARED 0.612, read-out: LUCIFERASE INFECTION ASSAY - IC50): 7.79 µM
IC90: > 9.31 µM

Brc1ccc(/C=N/c2ccccc2N2CCOCC2)cc1
IC50 [1]: > 10 µM
IC90: > 10 µM

C=CCNC(=O)NCC(=O)c1cc(C)n(-c2ccc(C(C)C)cc2)c1C
IC50 (HEPG2TOX_HILL_SLOPE 1.75, HEPG2TOX_R_SQUARED 0.807, PBLUC_HILL_SLOPE 19, PBLUC_R_SQUARED 0.54, read-out: LUCIFERASE INFECTION ASSAY - IC50): 3.26 µM
IC90: 3.66 µM
